The source of these data is patent US5382670A, “Platelet activating factor antagonists” (priority 1993, dated 1995).

For this assay, the target named is PAF receptor (Oryctolagus cuniculus, UniProt G1TEI7). As to the kind of experiment: PAF receptor binding assay: inhibition of specific [3H]C18-PAF binding to rabbit platelet membranes. The following applies: 0.6 nM [3H]C18-PAF, 60 min, 22-23 °C, Ki from IC50 (Cheng and Prusoff). Here is the method:
The ability of representative compounds of the present invention to inhibit PAF activity was determined in an in vitro test using the following method.
Citrated whole rabbit blood was obtained from Pel-Freez (Rogers, AR). Rabbit platelets were prepared by centrifugation and washing. The platelets were lysed by freeze-thawing and sonication; platelet membranes were prepared by centrifugation and washing. Final membrane preparations were stored frozen in 10 mM Tris/5 mM MgCl2 /2 mM EDTA (TME buffer, pH 7.0) with 0.25M sucrose added for membrane stabilization.
The standard PAF receptor binding assay contained 10 μg platelet membrane protein, 0.6 nM [^3 H]C18 -PAF (from Amersham or New England Nuclear; specific activity 120-180 Ci/mmol), with and without test compound, in "binding buffer" consisting of TME with 0.25% bovine serum albumin added (Sigma, RIA grade). The final volume of the assay was 100 μl. The assay was conducted in Millititre-GV™ (Millipore Corp.) filtration plates; incubation time was for 60 minutes at room temperature (22°-23° C.). "Specific binding" was operationally defined as the arithmetic difference between "total binding" of 0.6 nM [^3 H]C18 -PAF (in the abasence of added PAF) and "nonspecific binding" (in the presence of 1 μM PAF). After the prescribed incubation, platelet membranes were filtered under vacuum, and washed with 1 milliliter of "binding buffer". The filters were dried and removed. The bound radioactivity was quantitated with a Berthold TLC-Linear Analyzer model LB2842.
Dose-response curves of inhibition of specific [^3 H]C18 -PAF binding by test compounds were conducted in triplicate, with at least four doses covering the active range. Experiments were repeated at least once. IC50 values (concentration producing 50% inhibition) were determined by point-to-point evaluation. Ki values of inhibitory binding constants were calculated according to the method of Cheng and Prusoff [Biochem. Pharmacol. 22 (1973) 3099-3108] whereby [formula]
The values of Ki for representative compounds of the present invention appear in Table 1.

[1] abbreviates: read-out: Ki (PAF Receptor Binding Activity).
The mark [2] stands for this setting: Ki (PAF Receptor Binding Activity).

Structures are written as SMILES. Counter-ions that a name gives are not always drawn. Like-named read-outs stand apart in the source and are kept apart here.

Sequence of PAF receptor (G1TEI7 1-342): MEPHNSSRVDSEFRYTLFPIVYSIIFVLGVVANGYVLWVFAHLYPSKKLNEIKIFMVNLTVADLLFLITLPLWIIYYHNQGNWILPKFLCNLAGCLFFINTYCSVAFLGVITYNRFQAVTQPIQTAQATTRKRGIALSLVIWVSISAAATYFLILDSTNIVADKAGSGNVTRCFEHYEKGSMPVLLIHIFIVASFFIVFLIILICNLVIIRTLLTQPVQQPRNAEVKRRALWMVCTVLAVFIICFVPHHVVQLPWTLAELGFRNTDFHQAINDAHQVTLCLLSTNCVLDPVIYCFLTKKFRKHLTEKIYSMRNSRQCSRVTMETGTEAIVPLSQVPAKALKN

Consider `CCS(=O)(=O)n1cc(C(=O)C2CSC(c3cccnc3)N2)c2ccc(OCc3ccccc3)cc21` (stereo not shown) [Example 73, 1-ethylsulfonyl-3-[2-(3-pyridinyl)thiazolid-4-oyl]-6-phenylmethoxyindole], for which, under setting [1], the inhibition constant (Ki) worked out at 8 nM. Still for that read-out and setting: to `O=C(c1c[nH]c2cc(OCc3ccc(F)cc3)ccc12)C1CSC(c2cccnc2)N1` (stereo not shown) [Example 74, 3-[2-(3-pyridinyl)thiazolid-4-oyl]-6-(4-fluorophenylmethoxy)indole] belongs 3 nM. The same measure, in the same setting: the value for `CN(C)C(=O)n1cc(C(=O)C2CSC(c3cccnc3)N2)c2ccc(OCc3ccc(F)cc3)cc21` (stereo not shown) [Example 75, 1-dimethylcarbamoyl-3-[2-(3-pyridinyl)thiazolid-4-oyl]-6-(4-fluorophenylmethoxy)indole] was 2 nM; that for `O=C(c1c[nH]c2cc(OCc3cccnc3)ccc12)C1CSC(c2cccnc2)N1` (stereo not shown) [Example 76] was 30 nM; that for `O=C(c1c[nH]c2cc(C#Cc3ccccc3)ccc12)C1CSC(c2cccnc2)N1` (stereo not shown) [Example 77, 3-[2-(3-pyridinyl)thiazolid-4-oyl]-6-phenylethynylindole] was 9 nM. Still for that read-out and setting: to `CN(C)C(=O)n1cc(C(=O)C2CSC(c3cccnc3)N2)c2ccc(C#Cc3ccccc3)cc21` (stereo not shown) [Example 78] belongs 2 nM; to `Cc1[nH]c2cc(OCc3ccccc3)ccc2c1C(=O)C1CSC(c2cccnc2)N1` (stereo not shown) [Example 79, 2-methyl-3-[2-(3-pyridinyl)thiazolid-4-oyl]-6-phenylmethoxyindole], 16 nM. Under setting [2], `Cc1ccc2c(C(=O)C3CSC(c4cccnc4)N3)c[nH]c2c1` (stereo not shown) [Example 80, 3-[2-(3-pyridinyl)thiazolid-4-oyl]-6-methylindole] came in with a Ki of 3 nM. As for `Cc1ccc2c(C(=O)C3CSC(c4cccnc4)N3)cn(C(=O)OC(C)(C)C)c2c1` (stereo not shown) [Example 81, 1-tert-butoxycarbonyl-3-[2-(3-pyridinyl)thiazolid-4-oyl]-6-methylindole oxalate], the inhibitory constant (Ki) under setting [1] is 2 nM. `COc1ccc2c(C(=O)C3CSC(c4cccnc4)N3)c[nH]c2c1` (stereo not shown) [Example 82, 3-[2-(3-pyridinyl)thiazolid-4-oyl]-6-methoxyindole] gave an inhibition constant (Ki) under setting [2] of 9 nM. The compound `COc1ccc2c(C(=O)C3CSC(c4cccnc4)N3)c[nH]c2c1` (stereo not shown) [Example 83, 3-[2-(3-pyridinyl)thiazolid-4-oyl]-6-methoxyindole oxalate] yielded an inhibitory constant (Ki) under setting [2] of 16 nM.

As for `COc1ccc2c(C(=O)C3CSC(c4cccnc4)N3)cn(C(=O)OC(C)(C)C)c2c1` (stereo not shown) [Example 84, 1-tert-butoxycarbonyl-3-[2-(3-pyridinyl)thiazolid-4-oyl]-6-methoxyindole oxalate], the Ki under setting [1] was found to be 9 nM. Still for that read-out and setting: to `COc1ccc2c(C(=O)C3CSC(c4cccnc4)N3)cn(C(=O)N(C)C)c2c1` (stereo not shown) [Example 85, 1-dimethylcarbamoyl-3-[2-(3-pyridinyl)thiazolid-4-oyl]-6-methoxyindole] belongs 4 nM; to `O=C(c1c[nH]c2cc(-c3ccccc3)ccc12)C1CSC(c2cccnc2)N1` (stereo not shown) [Example 86, 3-[2-(3-pyridinyl)-thiazolid-4-oyl]-6-phenylindole], 15 nM; to `CN(C)C(=O)n1cc(C(=O)C2CSC(c3cccnc3)N2)c2ccc(-c3ccccc3)cc21` (stereo not shown) [Example 87, 1-dimethylcarbamoyl-3-[2-(3-pyridinyl)thiazolid-4-oyl]-6-phenylindole], 4 nM.

`O=C(c1c[nH]c2cc(O)ccc12)C1CSC(c2cccnc2)N1` (stereo not shown) [Example 88, 3-[2-(3-pyridinyl)thiazolid-4-oyl]-6-hydroxyindole] yielded a Ki under setting [2] of 150 nM. As for `CN(C)C(=O)n1cc(C(=O)C2CSC(c3cccnc3)N2)c2ccc(Cl)cc21` (stereo not shown) [Example 89, 1-dimethylcarbamoyl-3-[2-(3-pyridinyl)thiazolid-4-oyl]-6-chloroindole], under setting [1], the Ki stood at 1 nM.

For the compound `O=CN1C(C(=O)c2c[nH]c3ccccc23)CSC1c1cccnc1` (stereo not shown) [Example 90, 3-[2-(3-pyridinyl)-3-formylthiazolid-4-oyl]indole], the Ki under setting [1] is 270 nM. On the same count and under the same terms, the value for `CN(C)C(=O)n1cc(C(=O)C2CSC(c3cccnc3)N2C=O)c2ccccc21` (stereo not shown) [Example 91, 1-dimethylcarbamoyl-3-[2-(3-pyridinyl)-3-formylthiazolid-4-oyl]indole] was 37 nM. For the compound `O=CN1C(C(=O)c2cn(C(=O)N3CCOCC3)c3ccccc23)CSC1c1cccnc1` (stereo not shown) [Example 92, 1-(4-morpholinocarbonyl)-3-[2-(3-pyridinyl)-3-formylthiazolid-4-oyl]indole], the inhibition constant Ki under setting [1] was 150 nM. On the same count and under the same terms, the value for `CN(C)C(=O)n1cc(C(=O)C2CSC(c3cccnc3)N2C=O)c2ccc(OCc3ccccc3)cc21` (stereo not shown) [Example 93, 1-dimethylcarbamoyl-3-[2-(3-pyridinyl)-3-formylthiazolid-4-oyl]-6-phenylmethoxyindole] was 35 nM; that for `Cc1ccc2c(C(=O)C3CSC(c4cccnc4)N3C=O)cn(C(=O)N(C)C)c2c1` (stereo not shown) [Example 94, 1-dimethylcarbamoyl-3-[2-(3-pyridinyl)-3-formylthiazolid-4-oyl]-6-methylindole] was 33 nM. Still for that read-out and setting: the value for `CN(C)C(=O)n1cc(C(=O)C2C[S+]([O-])C(c3cccnc3)N2C=O)c2ccccc21` (stereo not shown) [Example 95, 1-dimethylcarbamoyl-3-[1-oxide,2-(3,pyridinyl)-3-formylthiazolid-4-oyl]indole] was 3300 nM. The same measure, in the same setting: to `CN(C)C(=O)n1cc(C(=O)[C@@H]2CSC(c3cccnc3)N2C=O)c2ccccc21` (stereo partly drawn) [Example 96, trans-1-dimethylcarbamoyl-3-[2-(3-pyridinyl)-3-formylthiazolid-4-oyl]indole] belongs 150 nM; to `CC(=O)N1C(C(=O)c2c[nH]c3ccccc23)CSC1c1cccnc1` (stereo not shown) [Example 98, 3-[2-(3-pyridinyl)-3-acetylthiazolid-4-oyl]indole], 18000 nM; to `CC(=O)N1C(C(=O)c2cn(C(=O)N(C)C)c3cc(OCc4ccccc4)ccc23)CSC1c1cccnc1` (stereo not shown) [Example 99, 1-dimethylcarbamoyl-3-[2-(3-pyridinyl)-3-acetylthiazolid-4-oyl]-6-phenylmethoxyindole], 5000 nM.

Turning to `CC(=O)N1C(C(=O)c2cn(C(=O)N(C)C)c3ccccc23)CSC1c1cccnc1` (stereo not shown) [Example 100, 1-dimethylcarbamoyl-3-[2-(3-pyridinyl)-3-acetylthiazolid-4-oyl]indole], under setting [1], the Ki was 5200 nM. Still for that read-out and setting: to `CC(=O)N1C(C(=O)c2cn(C(=O)N(C)C)c3cc(OCc4ccccc4)ccc23)CSC1c1cccnc1` (stereo not shown) [Example 101, oxalate] belongs 2200 nM; to `CN(C)C(=O)n1cc(C(=O)C2CSC(c3cccnc3)N2C(N)=O)c2ccccc21` (stereo not shown) [Example 110, 1-dimethylcarbamoyl-3-[2-(3-pyridinyl)-3-carbamoylthiazolid-4-oyl]indole], 1400 nM; to `CN(C)C(=O)n1cc(C(=O)C2CSC(c3cccnc3)N2C(N)=O)c2ccc(OCc3ccccc3)cc21` (stereo not shown) [Example 111, 1-dimethylcarbamoyl-3-[2-(3-pyridinyl)-3-carbamoylthiazolid-4-oyl]-6-phenylmethoxyindole], 700 nM. Same read-out and setting: to `CN(C)C(=O)n1cc(C(=O)C2CSC(c3cccnc3)N2S(C)(=O)=O)c2ccccc21` (stereo not shown) [Example 112, 1-dimethylcarbamoyl-3-[2-(3-pyridinyl)-3-methylsulfonylthiazolid-4-oyl]indole] belongs 4800 nM; to `CN(C)C(=O)n1cc(C(=O)C2COC(c3cccnc3)N2C=O)c2ccccc21` (stereo not shown) [Example 113, 1-dimethylcarbamoyl-3-[2-(3-pyridinyl)-3,formyloxazolid-4-oyl]indole], 1300 nM; to `CC(C)(C)OC(=O)n1cc(C(O)C2CSC(c3cccnc3)N2)c2ccccc21` (stereo not shown) [Example 114, [2-(3-pyridinyl)thiazolid-4-yl](1-tert-butoxycarbonylindol-3-yl)methanol], 43 nM. `O=C(c1cc2ccccc2[nH]1)C1CSC(c2cccnc2)N1` (stereo not shown) [Example 115, 2-[2-(3-pyridinyl)thiazolid-4-oyl]indole] gave a Ki under setting [2] of 155 nM. On the same count and under the same terms, the value for `CN(C)C(=O)Cn1cc(C(=O)C2CSC(c3cccnc3)N2)c2ccccc21` (stereo not shown) [Example 116, 1-(N,N-dimethylcarbamoylmethyl)-3-[2-(3-pyridinyl)thiazolid-4-oyl]indole] was 7 nM; that for `CNC(=O)Cn1cc(C(=O)C2CSC(c3cccnc3)N2)c2ccccc21` (stereo not shown) [Example 117, 1-(N-methylcarbamoylmethyl)-3-[2-(3-pyridinyl)thiazolid-4-oyl]indole] was 3 nM; that for `COC(=O)CCn1cc(C(=O)C2CSC(c3cccnc3)N2)c2ccccc21` (stereo not shown) [Example 118, 1-carbomethoxyethyl-3-[2-(3-pyridinyl)thiazolid-4-oyl]indole] was 5 nM.

What is called Ki is the dissociation constant of the complex between target and ligand, obtained from inhibition or displacement.
